US20050107611A1, “Pyrazolyl-substituted triazoloquinoxalines” (priority 2001, published 2005)
pKi: −log10 of the molar value.

How the values were obtained:
[1] = target: T1, human A2B-receptor (Homo sapiens, UniProt P29275); assay: Receptor binding assay with [3H]ZM241385 on recombinant A2B-adenosine receptors in HEK cells; conditions: for pKi: Table 2, [3H]ZM241385, read-out: A2B K1
T1 construct: purchased Receptor Biology USA via Perkin Elmer Life Sciences, Cologne, Germany; host or cells: HEK cells (membranes)
T1 sequence (P29275 1-332): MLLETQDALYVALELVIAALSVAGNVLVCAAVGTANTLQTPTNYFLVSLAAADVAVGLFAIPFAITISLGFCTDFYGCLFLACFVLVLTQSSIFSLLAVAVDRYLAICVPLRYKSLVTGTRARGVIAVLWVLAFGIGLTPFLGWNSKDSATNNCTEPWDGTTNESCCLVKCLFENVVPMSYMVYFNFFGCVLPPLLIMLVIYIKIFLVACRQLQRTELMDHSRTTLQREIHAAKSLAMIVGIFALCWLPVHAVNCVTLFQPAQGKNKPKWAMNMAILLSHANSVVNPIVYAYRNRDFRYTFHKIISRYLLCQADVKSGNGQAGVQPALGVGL
Source text: (§1) The data of the biological tests that are cited below results from radioligand-binding assays on A1, A2A, A2B and A3 adenosine receptors (ARs).
(§2) The following selective radioligands are used in the biological tests: • [^3H]CCPA (for A1 ARs) [Klotz et al., Naunyn-Schmiedeberg's Arch. Pharmacol., 340, 679 (1989)] • [^3]MSX-2 (for A2A ARs) [Muiller et al., Eur. J. Pharm. Sci., 10, 259 (2000)] • [^3H]ZM241385 (for A2B ARs_[X.-D. Ji, K. A. Jacobson, Drug Des. Discov., 16, 217 (1999)] • [^3H]PSB-11 (new antagonistic radioligand for human A3 ARs) [M. Dieckmann, M. Thorand, V. Ozola, C. E. Muiller, in Vorbereitung [Preparation] (2001)]. • [^125I]AB-MECA (for rat-A3 ARs) [Olah et al., Mol. Pharmacol., 45, 978 (1994)]. Description of the Assays That are Used for Testing Substances Production of Tissue Preparations Made from Rat Brains
In addition, A28-adenosine receptor membranes are prepared, whereby, for example, finished prepared membranes of HEK cells, which express the human A2B-receptor in high density (about 4 pmol/mg of protein), were available commercially (Receptor Biology USA via Perkin Elmer Life Sciences, Cologne, Germany).
The test substances are dissolved in DMSO to 10 mmol. The final concentration of DMSO in the assay is 2.5% for A1- and A2A-adenosine receptor assays and 1-2% for A2B- and A3-assays. Dilution series of the test substances are produced from the stock solution. Five to eight different test concentrations, which comprise 3 orders of magnitude (e.g., 1 nm to 1000 nm), are used. […]
(§3) The mean value is calculated from three independent experiments. IC50 and K, values are obtained from the Cheng-Prusoff equation, the concentration and the KD value of the radioligand. For calculation, the program GraphPadPrism™, Version 3.0 (GraphPad, San Diego, Calif., USA), was used.

[2] = target: T2, human A3 adenosine receptor (Homo sapiens, UniProt P0DMS8); assay: Receptor binding assay with [3H]PSB-11 on recombinant A3-adenosine receptors expressed in CHO cells; conditions: for pKi: Table 2, [3H]PSB-11, read-out: A3 K1
T2 construct: expressed in transfected cells; host or cells: CHO cells
T2 sequence (P0DMS8 1-318): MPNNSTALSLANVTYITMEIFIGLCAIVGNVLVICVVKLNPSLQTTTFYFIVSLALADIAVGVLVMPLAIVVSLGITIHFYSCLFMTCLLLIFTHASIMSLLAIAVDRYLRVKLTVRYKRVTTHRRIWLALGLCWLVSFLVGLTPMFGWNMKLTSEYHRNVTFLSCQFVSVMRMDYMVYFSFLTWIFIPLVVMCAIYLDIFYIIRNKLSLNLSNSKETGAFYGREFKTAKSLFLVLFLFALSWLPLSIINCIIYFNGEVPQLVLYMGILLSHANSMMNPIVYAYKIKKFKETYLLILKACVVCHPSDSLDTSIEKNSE
Source text: as §1, §2
For CHO cells, which express the A3-adenosine receptor, the operating steps are also performed analogously to the A1-adenosine receptor-CHO culture. The medium is used as described above.
Preparation of Recombinant Human A3-Adenosine Receptors Expressed in CHO Cells for A3-Adenosine Receptor Binding Studies
2 to 3 ml of ice-cold TRIS buffer (pH 7.4; 50 mmol) is added to the tissue culture dishes. The cells are scraped off from the plates with a rubber scraper and collected in a beaker. The plates are rinsed with another 1 to 2 ml of TRIS buffer (pH 7.4; 50 mmol). The cell suspension is dispersed into centrifuge tubes and centrifuged at 4° C., 35,000 g, for 20 minutes. The supernatant is discarded, and the pellet is resuspended in TRIS buffer (pH 7.4; 50 mmol) with the homogenizer at the highest level for 3 to 4 seconds. This suspension is again centrifuged. The washing process is repeated another time. The pellet that is obtained is resuspended with the least possible TRIS buffer (pH 7.4; 50 mmol) and delivered in aliquots (0.25 ml and 0.5 ml).
The test substances are dissolved in DMSO to 10 mmol. The final concentration of DMSO in the assay is 2.5% for A1- and A2A-adenosine receptor assays and 1-2% for A2B- and A3-assays. Dilution series of the test substances are produced from the stock solution. Five to eight different test concentrations, which comprise 3 orders of magnitude (e.g., 1 nm to 1000 nm), are used.
Receptor Binding Assay with [^3H]PSB-11 on Recombinant A3-Adenosine Receptors Expressed in CHO Cells:
The assay is performed with […] according to the instructions under the receptor-binding assays with consideration for the above-listed amounts and solutions. The dilution in the assay is 1:50. The DMSO content is 2% here. The incubation at 23° C. in the oscillating water bath lasts for 45 minutes.
as §3

[3] = target: T3, A1 adenosine receptor (Rattus norvegicus, UniProt P25099); conditions: Table 1, literature values, cited from earlier work
T3 sequence (P25099 1-326): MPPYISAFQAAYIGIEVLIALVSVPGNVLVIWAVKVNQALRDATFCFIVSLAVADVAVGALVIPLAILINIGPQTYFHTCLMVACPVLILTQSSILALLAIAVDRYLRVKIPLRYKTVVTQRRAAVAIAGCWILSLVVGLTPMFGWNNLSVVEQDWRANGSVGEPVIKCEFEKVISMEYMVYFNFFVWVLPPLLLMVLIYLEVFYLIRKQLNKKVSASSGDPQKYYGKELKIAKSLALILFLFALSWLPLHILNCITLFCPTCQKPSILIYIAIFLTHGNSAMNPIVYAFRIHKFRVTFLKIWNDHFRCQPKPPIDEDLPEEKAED

Molecule	A2B % inhib. @ 1 μmol [1]	pKi [1]	A3 % inhib. @ 1 μmol [2]	pKi [2]	melting point	A1 % Inhibition @ 10 μmol ([3]; 10 μmol)	pKi ([3]; read-out: A1 K1)
4-(chloropyrazolyl)-1-(3-phenylpropyl)-[1,2,4-]triazolo[4,3-a]quinoxaline [Y = C—CH2—CH2—CH2-Ph, R5 = H, R6 = Cl]	(18%)	< 6.00	(32%)	< 6.00			
Cn1nc(-c2nc3ccccc3n3c(Cc4cccs4)nnc23)cc1Cl [Y = C—CH2-(2-Thienyl), R5 = CH3, R6 = Cl, 4-(5-Chloro-1H-1-methyl-pyrazol-3-yl)-1-(2-thienylmethyl)-[1,2,4]triazolo[4,3-a]-quinoxaline]	(22%)	< 6.00		7.07	205 to 207 °C		
COc1ccc2c(c1)nc(-c1cc(Cl)[nH]n1)c1nncn12 [Y = C—H, R3 = OCH3, R5 = H, R6 = Cl, 4-[3(5)-Chloro-1H-pyrazol-5(3)-yl]-7-methoxy-[1,2,4]triazolo[4,3-a]-quinoxaline]	(8%)	< 6.00		6.43			
Clc1cc(-c2nc3ccccc3n3cnnc23)[nH]n1 [Y = C—H, R5 = H, R6 = Cl]	(0%)	< 6.00		6.85		(35%)	< 5.00

Further lines, with some results ahead:

A2B % inhib. @ 1 μmol [1]	pKi [1]	A3 % inhib. @ 1 μmol [2]	pKi [2]	melting point	Molecule	A1 % Inhibition @ 10 μmol ([3]; 10 μmol)	pKi ([3]; read-out: A1 K1)
(0%)	< 6.00		8.72		COc1ccc2c(c1)nc(-c1cc(Cl)n[nH]1)c1nnc(Cc3cccs3)n12 [4-[3(5)-Chloro-1H-pyrazol-5(3)-yl]-7-methoxy-1-(2-thienylmethyl)-[1,2,4]triazolo[4,3-a]-quinoxaline]		
(25%)	< 6.00	(31%)	< 6.00		Clc1cc(-c2nc3ccccc3n3c(-c4ccoc4)nnc23)n[nH]1 [Y = C-(3-Furyl), R5 = H, R6 = Cl]		
(13%)	< 6.00	(53%)			Clc1cc(-c2nc3ccccc3n3nnnc23)n[nH]1 [Y = N, R5 = H, R6 = Cl, 4-[3(5)-Chloro-1H-pyrazol-5(3)-yl]tetrazolo[1,5-a]quinoxaline]		
